In brackets after ≈: the same amount, converted by molar mass. Blank lines part the entries; values can stand above or below the compound they belong to.
Experiments:
Format in all cases: ADME
[1] = Evaluated for the solubility in water at 5.8 pH of filtered solution; conditions: pH 5.8, read-out: S
[2] = Evaluated the half life period in CH3CN / buffer, pH 7.4 at 37 degree C
[3] = Evaluated the half life period in distilled water at room temperature
[4] = Evaluated for the solubility in pH 7.4 buffer suspended at 5 mg / mL at 7.4 pH of filtered solution
[5] = Evaluated for the solubility in 0.10 N HCl at 1.6 pH of filtered solution; conditions: pH 1.6, read-out: S
[6] = Evaluated for the solubility in water at 4.8 pH of filtered solution; conditions: pH 4.8, read-out: S
[7] = Evaluated for the solubility in pH 6.0 buffer suspended at 5 mg / mL at 6.0 pH of filtered solution
[8] = Evaluated for the solubility in 0.10 N HCl at 1.5 pH of filtered solution; conditions: pH 1.5, read-out: S
[9] = Evaluated for the solubility in water at 3.3 pH of filtered solution; conditions: pH 3.3, read-out: S
[10] = Evaluated for the solubility in water at 3.2 pH of filtered solution; conditions: pH 3.2, read-out: S
[11] = Evaluated for the solubility in 0.10 N HCl at 1.7 pH of filtered solution; conditions: pH 1.7, read-out: S

solubility [1]: 2 µg/mL (≈ 2.82 µM)
SMILES: CC(C)C[C@H](O)C(O)[C@H](CC1CCCCC1)NC(=O)[C@H](Cc1csc(N)n1)NC(=O)[C@H](Cc1ccccc1)NS(=O)(=O)N1CCOCC1 (stereo partly drawn)

half-life [2]: 1 min
half-life [3]: > 96 h
SMILES: CC(C)C[C@H](O)C(OC(=O)[C@H](Cc1csc(N)n1)NC(=O)[C@H](Cc1ccccc1)NS(=O)(=O)N1CCOCC1)[C@@H](N)CC1CCCCC1 (stereo partly drawn)

solubility [4]: 1 µg/mL
solubility [5]: 6600 µg/mL
solubility [6]: 20 µg/mL
solubility [7]: 1 µg/mL
SMILES: CC(C)C[C@H](O)C(O)[C@H](CC1CCCCC1)NC(=O)[C@H](Cc1csc(N)n1)NC(=O)[C@H](Cc1ccccc1)NS(=O)(=O)N1CCOCC1.Cl (stereo partly drawn)

solubility [8]: 54600 µg/mL
solubility [9]: 17600 µg/mL
SMILES: CC(C)C[C@H](O)C(OC(=O)[C@H](Cc1csc(N)n1)NC(=O)[C@H](Cc1ccccc1)NS(=O)(=O)N1CCOCC1)[C@@H](N)CC1CCCCC1.Cl (stereo partly drawn)

solubility [10]: 20900 µg/mL
solubility [4]: 300 µg/mL
solubility [7]: 1940 µg/mL
solubility [11]: 71300 µg/mL
SMILES: CC(C)C[C@H](OC(=O)[C@H](Cc1csc(N)n1)NC(=O)[C@H](Cc1ccccc1)NS(=O)(=O)N1CCOCC1)C(O)[C@@H](N)CC1CCCCC1.Cl (stereo partly drawn)

Reference: ChEMBL document CHEMBL1126695, “Orally active water-soluble N,O-acyl transfer products of a beta,gamma-bishydroxyl amide containing renin inhibitor” (J Med Chem, 1993)
